This note sets out measurements from PubChem BioAssay AID180 (DTP/NCI, 2004).

“And” between values parts separate entries of the source, which are not always exact repeats. Equal entries are not always repeated.

The subject of this assay is BDF1 mice, Adenocarcinoma 755 s.c., tumor weight T/C. In words: NCI In Vivo Anticancer Drug Screen. Data for tumor model Adenocarcinoma 755 (subcutaneous) in B6D2F1 (BDF1) mice. The note with it: endpoint: mean tumor weight, higher = larger tumour. As for the experimental part: The antitumor activity of compounds was measured in mice bearing transplantable tumors. Survival or tumor size were measured and the results are expressed as the measurement made in the treated group (T) divided by the measurement made in the vehicle treated control group (C). The tumor model used in this assay is Adenocarcinoma 755 (subcutaneous) in B6D2F1 (BDF1) mice

For the compound `[N-]=[N+]=C1C(=O)NC(=O)N2C3CC(O)C(COC12)O3` (stereo unspecified), the T/C (usually the result in the treated group divided by that in the control group, in per cent) was 87 % of control (dose: 30.0 mg/kg/injection, schedule: Q01DX011 (ip), vehicle: saline); 80 % of control (dose: 60.0 mg/kg/injection, schedule: Q01DX011 (ip), vehicle: saline); 97 % of control (dose: 120.0 mg/kg/injection, schedule: Q01DX011 (ip), vehicle: saline); 68 % of control (dose: 240.0 mg/kg/injection, schedule: Q01DX011 (ip), vehicle: saline); 40 % of control (dose: 400.0 mg/kg/injection, schedule: Q01DX011 (ip), vehicle: carboxymethylcellulose (CMC)).

`CC(C)Cn1cnc2c(SC(C)C)nc(N)nc21`: the T/C is, setting by setting: (dose: 6.25 mg/kg/injection, schedule: Q01DX011 (ip), vehicle: methylcellulose (MC)) 56 % of control; (dose: 12.5 mg/kg/injection, schedule: Q01DX011 (ip), vehicle: methylcellulose (MC)) 19 % of control; (dose: 25.0 mg/kg/injection, schedule: Q01DX011 (ip), vehicle: methylcellulose (MC)) 4 % of control; (dose: 50.0 mg/kg/injection, schedule: Q01DX011 (ip), vehicle: methylcellulose (MC)) 1 % of control.

Turning to `C[C@H]1C[C@@H]2[C@H]([C@@H](O)C[C@@]3(C)[C@H]2CC[C@]3(O)C(=O)CF)[C@@]2(C)C=CC(=O)C=C12`, the T/C is, setting by setting: (dose: 2.5 mg/kg/injection, schedule: Q01DX011 (sc), vehicle: steriod suspending solution) 82 % of control; (dose: 5.0 mg/kg/injection, schedule: Q01DX011 (sc), vehicle: steriod suspending solution) 57 % of control; (dose: 10.0 mg/kg/injection, schedule: Q01DX011 (sc), vehicle: steriod suspending solution) 48 % of control; (dose: 21.0 mg/kg/injection, schedule: Q01DX011 (sc), vehicle: steriod suspending solution) 64 % of control; (dose: 25.0 mg/kg/injection, schedule: Q01DX011 (sc), vehicle: steriod suspending solution) 91 % of control; (dose: 42.0 mg/kg/injection, schedule: Q01DX011 (sc), vehicle: saline) 39 % of control. Moreover, the T/C is 12 % of control and 25 % of control (2×) (dose: 42.0 mg/kg/injection, schedule: Q01DX011 (sc), vehicle: steriod suspending solution); 59 % of control (dose: 50.0 mg/kg/injection, schedule: Q01DX011 (sc), vehicle: steriod suspending solution); 61 % of control (dose: 84.0 mg/kg/injection, schedule: Q01DX011 (sc), vehicle: saline); 9 % of control (dose: 84.0 mg/kg/injection, schedule: Q01DX011 (sc), vehicle: steriod suspending solution); 55 % of control (dose: 100.0 mg/kg/injection, schedule: Q01DX011 (sc), vehicle: steriod suspending solution); 19 % of control (dose: 168.0 mg/kg/injection, schedule: Q01DX011 (sc), vehicle: saline). Also, the T/C (dose: 168.0 mg/kg/injection, schedule: Q01DX011 (sc), vehicle: steriod suspending solution) was 1 % of control; the T/C (dose: 200.0 mg/kg/injection, schedule: Q01DX011 (sc), vehicle: steriod suspending solution) is 57 % of control; the T/C (dose: 336.0 mg/kg/injection, schedule: Q01DX011 (sc), vehicle: saline) was 19 % of control; the T/C (dose: 400.0 mg/kg/injection, schedule: Q01DX011 (sc), vehicle: steriod suspending solution) was 23 % of control; the T/C (dose: 500.0 mg/kg/injection, schedule: Q01DX011 (sc), vehicle: steriod suspending solution) is 39 % of control; the T/C (dose: 600.0 mg/kg/injection, schedule: Q01DX011 (sc), vehicle: steriod suspending solution) is 37 % of control. Also, the T/C (dose: 700.0 mg/kg/injection, schedule: Q01DX011 (sc), vehicle: steriod suspending solution) is 17 % of control.

In the case of `CC(=O)OCC(=O)[C@@]1(O)CC[C@H]2[C@@H]3C[C@H](C)C4=CC(=O)CC[C@]4(C)[C@H]3[C@@H](O)C[C@@]21C`, the T/C was 73 % of control (dose: 2.75 mg/kg/injection, schedule: Q01DX011 (sc), vehicle: steriod suspending solution); 55 % of control and 71 % of control (dose: 5.5 mg/kg/injection, schedule: Q01DX011 (sc), vehicle: steriod suspending solution); 19 % of control (dose: 22.0 mg/kg/injection, schedule: Q01DX011 (sc), vehicle: water); 42 % of control (dose: 44.0 mg/kg/injection, schedule: Q01DX011 (sc), vehicle: steriod suspending solution); 14 % of control and 20 % of control (dose: 44.0 mg/kg/injection, schedule: Q01DX011 (sc), vehicle: water); 50 % of control (dose: 87.0 mg/kg/injection, schedule: Q01DX011 (sc), vehicle: steriod suspending solution). The T/C was 11 % of control and 15 % of control (dose: 87.5 mg/kg/injection, schedule: Q01DX011 (sc), vehicle: water); 25 % of control (dose: 175.0 mg/kg/injection, schedule: Q01DX011 (sc), vehicle: steriod suspending solution); 3 % of control and 4 % of control (dose: 175.0 mg/kg/injection, schedule: Q01DX011 (sc), vehicle: water).

As for `NC(CO)(CO)CO`, the T/C reads like this: (dose: 125.0 mg/kg/injection, schedule: Q01DX011 (ip), vehicle: saline) 72 % of control; (dose: 250.0 mg/kg/injection, schedule: Q01DX011 (ip), vehicle: saline) 69 % of control; (dose: 500.0 mg/kg/injection, schedule: Q01DX011 (ip), vehicle: saline) 75 % of control; (dose: 1000.0 mg/kg/injection, schedule: Q01DX011 (ip), vehicle: saline) 84 % of control.

For the compound `OC1C(O)C(O)C2(CO2)C(O)C1O` (stereo unspecified), under “dose: 300.0 mg/kg/injection, schedule: Q01DX011 (ip), vehicle: saline”, the T/C was 99 % of control.

As for `Nc1ncnc(F)c1N`, the T/C reads like this: (dose: 15.5 mg/kg/injection, schedule: Q01DX011 (ip), vehicle: carboxymethylcellulose (CMC)) 106 % of control; (dose: 30.0 mg/kg/injection, schedule: Q01DX011 (ip), vehicle: carboxymethylcellulose (CMC)) 96 % of control; (dose: 60.0 mg/kg/injection, schedule: Q01DX011 (ip), vehicle: carboxymethylcellulose (CMC)) 123 % of control; (dose: 120.0 mg/kg/injection, schedule: Q01DX011 (ip), vehicle: carboxymethylcellulose (CMC)) 89 % of control.
